Measurements reported in patent publication US8802053B2 (Brookhaven Science Associates, LLC, priority 2009, dated 2014).

How the values were obtained:
brain aromatase enzymes = settings: Kil et al. (2008); cited from earlier work
[1] = Plasma analysis for fraction of 11C-isomers (unchanged parent tracer by HPLC); assay type: in vivo; settings: baboon plasma
Experimental: Plasma analysis for fraction of ^11C-isomers: Plasma samples at 1, 5, 10, 30 and 60 min were analyzed by HPLC to determine the percent of residual parent tracer. Plasma samples from selected time points were added to 300 μL acetonitrile containing an appropriate amount of standard, then subjected to cell disruption using a Polytron (Brinkmann Instruments), centrifuged for 4 minutes and decanted into 300 μL water. HPLC conditions were 60:40 0.1 M ammonium formate:acetonitrile, Waters μBondapak column (3.9×300 mm), flow 1.3 mL/min, UV detection at 254 nm. Supernatants were injected onto the column, reserving a measured amount to determine recovery of injected activity from the column. […] Five fractions were collected from each injection, 3 before the parent peak, the parent peak, and finally the tail of the parent peak. The percent unchanged tracer was determined by dividing the sum of the last 2 peaks by the sum of all HPLC fractions.

brain aromatase = assay: PET studies in baboons (brain imaging); assay type: in vivo, baboon
Experimental: PET Studies in Baboons: All animal studies were reviewed and approved by the Brookhaven Institutional Animal Care and Use Committee. […] Baboons were anesthetized with ketamine (10 mg/kg) and then intubated and ventilated with a mixture of isoflurane (Forane, 1-4%) and nitrous oxide (1500 mL/min) and oxygen (800 mL/min). Animals were transported to and from the PET facility in a temperature controlled transfer cage and a member of the staff attended them while they recovered from anesthesia. Catheters were inserted in a popliteal artery and radial arm vein for arterial sampling a radiotracer injection respectively. Dynamic PET imaging was carried out on a Siemen's HR+ high resolution, whole body PET scanner (4.5×4.5×4.8 mm at center of field of view) in 3D acquisition mode, 63 planes. A transmission scan was obtained with a ^68Ge rotating rod source before the emission scan to correct for attenuation before each radiotracer injection. […] Dynamic scanning was carried out for 90 minutes with the following time frames (1×10 sec; 12×5 sec; 1×20 sec; 1×30 sec; 8×60 sec; 4×300 sec; 8×450 sec). […] During the PET scan, baboons were monitored for heart rate, respiration rate, PO2 and temperature. Animals were allowed 4 weeks between studies to recover from anesthesia and blood sampling.
Image Analysis: Time frames were summed over the 90 minute experimental period. Regions of interest were placed over the amygdala, the preoptic area, frontal cortex, cerebellum and thalamus on the summed image and then projected onto the dynamic images to obtain time activity curves. Regions occurring bilaterally were averaged. Carbon-11 concentration in each region of interest was divided by the injected dose to obtain the % dose/cc. The summed PET images from one baboon was co-registered with a 3D MR image of the same animal using PMOD (PMOD Technologies, Ltd.).

SMILES: N#Cc1ccc(C(c2ccc(C#N)cc2)n2cncn2)cc1 [[^11C]letrozole]
- blocking of uptake by pretreatment with unlabeled letrozole (brain aromatase enzymes): failed to block uptake
- brain uptake and clearance (brain aromatase enzymes): rapidly taken up in the brain and was then rapidly cleared

SMILES: [11CH3]n1nc2ccc(C(c3ccc(Cl)cc3)n3cncn3)cc2n1 (stereo not drawn) [N-2 isomer]
- appearance of labeled metabolites in plasma [1]: very rapid appearance of labeled metabolites
- disappearance of parent labeled compound from plasma [1]: rapid rate of disappearance of the parent labeled compound from plasma
- distribution to aromatase-rich brain regions (brain aromatase; baboon brain): no specific distribution to aromatase-rich brain regions
- PET image uptake in amygdala and preoptic area (brain aromatase; baboon brain, images summed 15-90 min after injection, FIG. 3): no specific uptake in amygdala and preoptic area

SMILES: N#Cc1ccc(C(c2ccc(C#N)cc2)n2cncn2)cc1 [letrozole, reference compound]
- effect of pretreatment on [N-methyl-11C]vorozole accumulation in brain (brain aromatase; blocking dose 0.1 mg/kg, 5 min prior, baboon): reduced [N-methyl-^11C]vorozole accumulation in all brain regions examined
